test system: subgenomic HCV replicon in Huh-7 cells; assay: Cell-Based HCV Replication Assay (replicon, NS3 Cell-ELISA); set-up: species or system hepatitis C virus (HCV); details: Hepatitis C virus; Huh-7 cells with subgenomic HCV replicon; NS3 expression by Cell-ELISA; 96 hours incubation; read-out: Cell based HCV Replication Assay-IC50
Text: Another suitable assay is the cellular Replicon or rheplisa assay described as follows:
Cell-Based HCV Replication Assay
Cell clones that stably maintain subgenomic HCV replicon were obtained by transfecting Huh-7 cells with an RNA replicon identical to I377neo/NS3-3′/wt described by V. Lohmann et al., 285 SCIENCE 110 (Jul. 2, 1999) (EMBL-GENBANK No. AJ242652), followed by selection with neomycin sulfate (G418). Viral replication was monitored by measuring the expression of the NS3 protein by an ELISA assay performed directly on cells grown in 96-well microtiter plates (Cell-ELISA) using the anti-NS3 monoclonal antibody 10E5/24 (as described in International Patent Application Publication WO 02/59321). Cells were seeded into 96 well plates at a density of 10^4 cells per well in a final volume of 0.1 ml of DMEM/10% FCS. Two hours after plating, 50 μl of DMEM/10% FCS containing a 3× concentration of inhibitor were added, cells were incubated for 96 hours and then fixed for 10 minutes with ice-cold isopropanol. Each condition was tested in duplicate and average absorbance values were used for calculations. The cells were washed twice with PBS, blocked with 5% non-fat dry milk in PBS+0.1% TRITON X-100+0.02% SDS (PBSTS) and then incubated o/n at 4° C. with the 10E5/24 mab diluted in Milk/PBSTS. After washing 5 times with PBSTS, the cells were incubated for 3 hours at room temperature with Fe-specific anti-mouse IgG conjugated to alkaline phosphatase (Sigma), diluted in Milk/PBSTS. After washing again as above, the reaction was developed with p-nitrophenyl phosphate disodium substrate (Sigma) and the absorbance at 405/620 nm read at intervals. For calculations, we used data sets where samples incubated without inhibitors had absorbance values comprised between 1 and 1.5. The inhibitor concentration that reduced by 50% the expression of NS3 (IC50) was calculated by fitting the data to the Hill equation, Fraction inhibition=1−(Ai−b)/(A0−b)=[I]^n/([I]+IC50) where: • Ai=absorbance value of HBI10 cells supplemented with the indicated inhibitor concentration. • A0=absorbance value of HBI10 cells incubated without inhibitor. • b=absorbance value of Huh-7 cells plated at the same density in the same microtiter plates and incubated without inhibitor. • n=Hill coefficient.

In order of falling IC50:
1. C=C[C@@H]1C[C@]1(NC(=O)[C@@H]1C[C@@H]2CN1C(=O)[C@H](C1CCCCC1)NC(=O)N1CC(C1)OCCC/C=C/c1cc3c(cc(OCC)nc3cc1OC)O2)C(=O)NS(=O)(=O)C1CC1 [Example 39, (3R,5S,8S,18E)-8-cyclohexyl-N-((1R,2S)-1-{[(cyclopropylsulfonyl)amino]carbonyl}-2-vinylcyclopropyl)-25-ethoxy-21-methoxy-7,10-dioxo-2,14-dioxa-6,9,11,24-tetraazapentacyclo [18.6.2.1^3,6.1^11,13.0^23,27] triaconta-1(26),18,20,22,24,27-hexaene-5-carboxamide]  19 nM
2. C=C[C@@H]1C[C@]1(NC(=O)[C@@H]1C[C@@H]2CN1C(=O)[C@H](C(C)(C)C)NC(=O)N1CCC[C@@H]1CC/C=C/c1cccc3c1CN(C3)C(=O)O2)C(=O)NS(=O)(=O)C1CC1 [Example 3, (1R,12E,16S,23S,26S)-23-tert-butyl-N-((1R,2S)-1-{[(cyclopropylsulfonyl)amino]carbonyl}-2-vinylcyclopropyl)-3,21,24-trioxo-2-oxa-4,20,22,25-tetraazapentacyclo [23.2.1.1^4,7.0^6,11.0^16,20] nonacosa-6,8,10,12-tetraene-26-carboxamide]  16 nM
3. C=C[C@@H]1C[C@]1(NC(=O)[C@@H]1C[C@@H]2CN1C(=O)[C@H](C1CCCC1)NC(=O)N1CC[C@@H](C1)OC/C=C/c1cc3c(cc(OCC)nc3cc1OC)O2)C(=O)NS(=O)(=O)C1CC1 [Example 22, (3R,5S,8S,14S,17E)-8-cyclopentyl-N-((1R,2S)-1-{[(cyclopropylsulfonyl)amino]carbonyl}-2-vinylcyclopropyl)-24-ethoxy-20-methoxy-7,10-dioxo-2,15-dioxa-6,9,11,23-tetraazapentacyclo [17.6.2.1^3,6.1^11,14.0^22,26] nonacosa-1(25),17,19,21,23,26-hexaene-5-carboxamide]  11 nM
4. C=C[C@@H]1C[C@]1(NC(=O)[C@@H]1C[C@@H]2CN1C(=O)[C@H](C1CCCC1)NC(=O)N1CC[C@H](COCCCc3nc4ccc(OC)cc4cc3O2)C1)C(=O)NS(=O)(=O)C1CC1 [Example 25, (1R,18S,24S,27S)-24-cyclopentyl-N-((1R,2R)-1-{[(cyclopropylsulfonyl)amino]carbonyl}-2-vinylcyclopropyl)-7-methoxy-22,25-dioxo-2,16-dioxa-11,21,23,26-tetraazapentacyclo [24.2.1.1^18,21.0^3,12.0^5,10] triaconta-3(12),4,5,7,9,10-hexaene-27-carboxamide]  7 nM
5. C=C[C@@H]1C[C@]1(NC(=O)[C@@H]1C[C@@H]2CN1C(=O)[C@H](C1CCCC1)NC(=O)N1CCC[C@@H]1COCCCc1ccc3nc(OCC)nc(c3c1)O2)C(=O)NS(=O)(=O)C1CC1 [Example 28, (6R,8S,11S,17aR)-11-cyclopentyl-N-((1R,2S)-1-{[(cyclopropylsulfonyl)amino]carbonyl}-2-vinylcyclopropyl)-3-ethoxy-10,13-dioxo-7,8,10,11,12,13,16,17,17a,18, 20,21-dodecahydro-6H,15H-1,22-(ethanediylidene)-6,9-methanopyrimido [4,5-n] pyrrolo[2,1-c][1,13,4,6,9] dioxatriazacyclononadecine-8-carboxamide]  6 nM

same assay, conditions: Hepatitis C virus; Huh-7 replicon cells; NS3 expression by Cell-ELISA; 96 hours; read-out: Cell-based HCV Replication Assay: IC50

In the case of `C=C[C@@H]1C[C@]1(NC(=O)[C@@H]1C[C@@H]2CN1C(=O)[C@H](C1CCCCC1)NC(=O)N1CC(C1)OCC/C=C/c1cc3c(cc(OCC)nc3cc1OC)O2)C(=O)NS(=O)(=O)C1CC1` [Example 44, (3R,5S,8S,17E)-8-Cyclohexyl-N-((1R,2S)-1-{[(cyclopropylsulfonyl)amino]carbonyl}-2-vinylcyclopropyl)-24-ethoxy-20-methoxy-7,10-dioxo-2,14-dioxa-6,9,11,23-tetraazapentacyclo[17.6.2.1^3,6.1^11,13.0^22,26]nonacosa-1(25),17,19,21,23,26-hexaene-5-carboxamide], the IC50 is reported as 6 nM.

From US8591878B2, “Therapeutic compounds” (Merck Sharp & Dohme Corp., priority 2008, dated 2013)
